Experimental data: the NIST ThermoML archive (doi:10.1021/je100089s)

Assay: xn = mol fraction of the nth substance listed
Settings: Liquid, Vibrating tube method

OCCO [1,2-ethanediol] + C[S+](C)[O-]
mass density [kg/m3]
Settings | 101 kPa | 10000 kPa | 25000 kPa | 50000 kPa | 75000 kPa | 100000 kPa
278.15 K, x2 = 0 | 1123.77 | 1127.65 | 1133.2 | 1141.71 | 1149.55 | 1157.24
278.15 K, x2 = 0.00452 | 1123.78 | – | – | – | – | –
278.15 K, x2 = 0.00721 | 1123.81 | – | – | – | – | –
278.15 K, x2 = 0.0181 | – | 1127.79 | 1133.35 | 1141.89 | 1149.87 | 1157.59
278.15 K, x2 = 0.01811 | 1123.89 | – | – | – | – | –
278.15 K, x2 = 0.03033 | 1123.98 | – | – | – | – | –
278.15 K, x2 = 0.04027 | 1124.05 | – | – | – | – | –
278.15 K, x2 = 0.0403 | – | 1127.98 | 1133.57 | 1142.21 | 1150.25 | 1158.01
278.15 K, x2 = 0.07007 | 1124.18 | – | – | – | – | –
278.15 K, x2 = 0.0701 | – | 1128.13 | 1133.74 | 1142.44 | 1150.68 | 1158.48
278.15 K, x2 = 0.1097 | 1124.31 | 1128.3 | 1133.94 | 1142.73 | 1151.17 | 1159.03
278.15 K, x2 = 0.1408 | 1124.41 | 1128.43 | 1134.12 | 1142.98 | 1151.53 | 1159.45
278.15 K, x2 = 0.1934 | 1124.41 | 1128.44 | 1134.19 | 1143.24 | 1151.93 | 1159.97
278.15 K, x2 = 0.234 | 1124.34 | 1128.39 | 1134.22 | 1143.4 | 1152.14 | 1160.33
278.15 K, x2 = 0.3244 | 1124.05 | 1128.13 | 1134.17 | 1143.66 | 1152.48 | 1160.9
278.15 K, x2 = 0.3764 | 1123.76 | 1127.85 | 1134.01 | 1143.73 | 1152.55 | 1161.23
278.15 K, x2 = 0.4429 | 1123.28 | 1127.37 | 1133.7 | 1143.69 | 1152.53 | 1161.47
278.15 K, x2 = 0.4892 | 1122.88 | 1126.97 | 1133.44 | 1143.64 | 1152.45 | 1161.74
278.15 K, x2 = 0.5654 | 1122.14 | 1126.24 | 1132.95 | 1143.45 | 1152.24 | 1162
278.15 K, x2 = 0.6298 | 1121.26 | – | – | – | – | –
278.15 K, x2 = 0.6946 | 1120.52 | – | – | – | – | –
288.15 K, x2 = 0 | – | 1120.87 | 1126.51 | 1135.26 | 1143.65 | 1151.55
288.15 K, x2 = 0.0181 | – | 1120.9 | 1126.66 | 1135.53 | 1143.78 | 1151.74
288.15 K, x2 = 0.0403 | – | 1121 | 1126.79 | 1135.69 | 1144 | 1152.03
288.15 K, x2 = 0.0701 | – | 1121.06 | 1126.89 | 1135.92 | 1144.4 | 1152.42
288.15 K, x2 = 0.1097 | – | 1121.09 | 1126.97 | 1136.1 | 1144.77 | 1152.92
288.15 K, x2 = 0.1408 | – | 1121.09 | 1127.02 | 1136.28 | 1145.05 | 1153.32
288.15 K, x2 = 0.1934 | – | 1121 | 1127.02 | 1136.35 | 1145.29 | 1153.81
288.15 K, x2 = 0.234 | – | 1120.87 | 1127.02 | 1136.51 | 1145.4 | 1154.03
288.15 K, x2 = 0.3244 | 1115.95 | 1120.42 | 1126.73 | 1136.43 | 1145.62 | 1154.61
288.15 K, x2 = 0.3764 | 1115.49 | 1119.99 | 1126.45 | 1136.4 | 1145.68 | 1154.78
288.15 K, x2 = 0.4429 | 1114.8 | 1119.41 | 1126.08 | 1136.29 | 1145.64 | 1154.83
288.15 K, x2 = 0.4892 | 1114.25 | 1118.92 | 1125.69 | 1136.07 | 1145.55 | 1154.79
288.15 K, x2 = 0.5654 | 1113.29 | 1118.05 | 1125.01 | 1135.67 | 1145.31 | 1154.87
288.15 K, x2 = 0.6298 | 1112.27 | – | – | – | – | –
288.15 K, x2 = 0.6946 | 1111.32 | 1116.19 | 1123.4 | 1134.56 | 1144.55 | 1154.68
288.15 K, x2 = 0.8142 | 1109.13 | – | – | – | – | –
298.15 K, x2 = 0 | – | 1113.97 | 1119.78 | 1128.78 | 1137.41 | –
298.15 K, x2 = 0.0181 | – | 1114 | 1119.85 | 1128.92 | 1137.62 | –
298.15 K, x2 = 0.0403 | – | 1114.01 | 1119.92 | 1129.12 | 1137.93 | –
298.15 K, x2 = 0.0701 | – | 1114.01 | 1119.95 | 1129.25 | 1138.31 | –
298.15 K, x2 = 0.1097 | – | 1113.67 | 1119.88 | 1129.29 | – | –
298.15 K, x2 = 0.1408 | 1109.42 | 1113.44 | 1119.71 | 1129.45 | – | –
298.15 K, x2 = 0.1934 | 1109.06 | 1112.87 | 1119.4 | 1129.48 | – | –
298.15 K, x2 = 0.234 | 1108.72 | 1112.42 | 1119.03 | 1129.27 | – | –
298.15 K, x2 = 0.3244 | 1107.82 | 1111.54 | 1118.39 | 1128.95 | – | –
298.15 K, x2 = 0.3764 | 1107.21 | 1110.95 | 1117.96 | 1128.79 | – | –
298.15 K, x2 = 0.4429 | 1106.29 | – | – | 1128.43 | – | –
298.15 K, x2 = 0.4892 | 1105.6 | 1109.49 | – | 1128.14 | – | –
298.15 K, x2 = 0.5654 | 1104.44 | 1108.61 | 1116.04 | 1127.67 | – | –
298.15 K, x2 = 0.6946 | 1102.13 | 1106.65 | 1114.43 | 1126.58 | – | –
298.15 K, x2 = 0.8142 | 1099.6 | 1104.54 | 1112.6 | 1125.27 | – | –
298.15 K, x2 = 0.867 | 1098.37 | – | – | – | – | –
298.15 K, x2 = 0.9266 | 1097.09 | – | 1110.81 | 1123.79 | – | –
298.15 K, x2 = 0.9836 | – | 1101.52 | – | 1123.02 | – | –
298.15 K, x2 = 0.9968 | 1095.42 | – | – | – | – | –
